Biological target: T1, factor D (Homo sapiens, UniProt P00746)
T1 construct: made in house; host or cells: E. coli
Assay: factor D inhibition assay of Biological Example 2
Type: biochemical

T1 sequence (P00746 26-253): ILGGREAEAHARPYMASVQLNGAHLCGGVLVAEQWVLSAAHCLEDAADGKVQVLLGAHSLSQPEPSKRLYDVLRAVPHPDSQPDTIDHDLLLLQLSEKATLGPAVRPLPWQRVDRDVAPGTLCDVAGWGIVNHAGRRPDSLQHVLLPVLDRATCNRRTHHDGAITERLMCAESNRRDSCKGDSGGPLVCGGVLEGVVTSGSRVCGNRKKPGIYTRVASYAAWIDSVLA

SMILES | IC50
NCc1cc(F)cc(-c2nc(C(=O)Nc3ccccc3CC(=O)O)c(Cl)s2)c1 [Example 30-D, 2-(2-(2-(3-(aminomethyl)-5-fluorophenyl)-5-chlorothiazole-4-carboxamido)phenyl)acetic acid] | 0.031 µM
N[C@H](CO)c1cccc(-c2cc(COc3ccccc3CC(=O)O)c3c(c2)OCO3)c1 [Example 255, (S)-2-(2-((6-(3-(1-amino-2-hydroxyethyl)phenyl)benzo[d][1,3]dioxol-4-yl)methoxy)phenyl)acetic acid] | 0.009 µM
C[C@@H](N)c1cccc(-c2cc(CNc3ccn(C)n3)cc(COc3ccccc3CC(=O)O)c2)c1F [Example 216-AF] | 0.016 µM
CCC[C@@H](N)c1cccc(-c2cc(COc3ccccc3CC(=O)O)cc(NCC3CC3)c2)c1 [Example 197, (R)-2-(2-((3′-(1-Aminobutyl)-5-((cyclopropylmethyl)amino)-[1,1′-biphenyl]-3-yl)methoxy)phenyl)acetic acid] | 0.069 µM
C[C@@H](N)c1cccc(-c2cc(COc3ccccc3CC(=O)O)cc(OCCN3CCCC3)c2)c1F [Example 214-G] | 0.022 µM
C[C@@H](N)c1cccc(-c2ccnc(COc3ccccc3CC(=O)O)c2)c1 [Example 180, (R)-2-(2-((4-(3-(1-Aminoethyl)phenyl)pyridin-2-yl)methoxy)phenyl)acetic acid] | 0.149 µM
C[C@@H](N)c1cccc(-c2cc(COc3ccccc3CC(=O)O)cc(C(O)C(F)(F)F)c2)c1 (mixture of isomers) [116-H a), 2-(2-((3′-((R)-1-aminoethyl)-5-(2,2,2-trifluoro-1-hydroxyethyl)-[1,1′-biphenyl]-3-yl)methoxy)phenyl)acetic acid] | 0.001 µM
CCC[C@@H](N)c1cccc(-c2cc(COc3ccccc3CC(=O)O)cc(NCC3CC3)c2)c1F [Example 199-B] | 0.069 µM
C[C@@H](N)c1cccc(-c2cc(COc3ccccc3CC(=O)O)cc(NCC3CCCC3)c2)c1F [Example 216-D] | 0.002 µM
NCc1cccc(-c2cc(COc3ccccc3CC(=O)O)cc(NCC3CCCO3)c2F)c1 (racemic) [Example 156-B, (±)-2-(2-((3′-(Aminomethyl)-6-fluoro-5-(((tetrahydrofuran-2-yl)methyl)amino)-[1,1′-biphenyl]-3-yl)methoxy)phenyl)acetic acid] | 0.002 µM
NCc1nc(-c2cccc(COc3ccccc3CC(=O)O)c2)cs1 [Example 190-K] | 0.133 µM
NCc1cccc(-c2ccc(Cl)c(C(=O)Nc3ccccc3CC(=O)O)n2)c1 [Example 56-A, 2-(2-(6-(3-(Aminomethyl)phenyl)-3-chloropicolinamido)phenyl)acetic acid] | 0.107 µM
CCOc1cc(COc2ccccc2CC(=O)O)cc(-c2cccc([C@@H](C)N)c2F)c1 [Example 256-B, (R)-2-(2-((3′-(1-Aminoethyl)-5-ethoxy-2′-fluoro-[1,1′-biphenyl]-3-yl)methoxy)phenyl)acetic acid] | 0.003 µM
Cc1ccc(-c2cccc([C@@H](C)N)c2F)cc1COc1ccccc1CC(=O)O [Example 273-B, (R)-2-(2-((3′-(1-aminoethyl)-2′-fluoro-4-methyl-[1,1′-biphenyl]-3-yl)methoxy)phenyl)acetic acid] | 0.014 µM
NCc1cc(F)cc(-c2csc(C(=O)Nc3ccccc3CC(=O)O)n2)c1 [Example 28-B, 2-(2-(4-(3-(aminomethyl)-5-fluorophenyl)thiazole-2-carboxamido)phenyl)acetic acid] | 0.057 µM
CC(C#N)Oc1cc(C(=O)Nc2ccccc2CC(=O)O)cc(-c2cccc(CN)c2)c1 (racemic) [Example 64, (±)-2-(2-(3′-(Aminomethyl)-5-(1-cyanoethoxy)-[1,1′-biphenyl]-3-ylcarboxamido)phenyl)acetic acid] | 0.063 µM
C[C@@H](N)c1cccc(-c2cc(COc3ccccc3CC(=O)O)cc(OCCN3CCOCC3)c2)c1F [Example 214-A] | 0.01 µM
Cn1ccc(COc2cc(C(=O)Nc3ccccc3CC(=O)O)cc(-c3cccc(CN)c3)c2)n1 [Example 66, 2-(2-(3′-(Aminomethyl)-5-((1-methyl-1H-pyrazol-3-yl)methoxy)-[1,1′-biphenyl]-3-ylcarboxamido)phenyl)acetic acid] | 0.033 µM
CNc1cc(COc2ccccc2CC(=O)O)cc(-c2cccc([C@H](N)CO)c2)c1 [Example 131, (S)-2-(2-((3′-(1-Amino-2-hydroxyethyl)-5-(methylamino)-[1,1′-biphenyl]-3-yl)methoxy)phenyl)acetic acid] | 0.018 µM
C[C@@H](N)c1cccc(-c2cc(COc3ccccc3CC(=O)O)cc(N3CCCC3)c2)c1F [Example 216-V] | 0.009 µM

Continued, values first:

IC50 | SMILES
0.199 µM | CCC[C@@H](N)c1cccc(-c2cc(COc3ccccc3CC(=O)O)cc(N3CCOCC3)c2)c1F [Example 198-C, (R)-2-(2-((3′-(1-Aminobutyl)-2′-fluoro-5-morpholino-[1,1′-biphenyl]-3-yl)methoxy)phenyl)acetic acid]
8.47 µM | NC1(c2cccc(-c3cccc(C(=O)Nc4ccccc4CC(=O)O)c3)c2)CC1 [Example 92, 2-(2-(3′-(1-Aminocyclopropyl)-[1,1′-biphenyl]-3-ylcarboxamido)phenyl)acetic acid]
0.002 µM | NCc1cc(-c2cc(COc3ccccc3CC(=O)O)cc(OC[C@H]3CCCO3)c2)ccn1 [Example 138-A]
0.004 µM | NCc1cccc(-c2cc(COc3ccccc3CC(=O)O)c(F)c(NCC3CCCO3)c2)c1 (racemic) [154-C b), (±)-2-(2-((3′-(aminomethyl)-4-fluoro-5-(((tetrahydrofuran-2-yl)methyl)amino)-[1,1′-biphenyl]-3-yl)methoxy)phenyl)acetic acid]
0.054 µM | NCc1cccc(-c2cc(OCc3ccncc3)cc(C(=O)Nc3ccccc3CC(=O)O)c2)c1 [Example 62, 2-(2-(3′-(Aminomethyl)-5-(pyridin-4-ylmethoxy)-[1,1′-biphenyl]-3-ylcarboxamido)phenyl)acetic acid]
0.063 µM | NC(CF)c1cccc(-c2cc(COc3ccccc3CC(=O)O)cc(CN3CCOCC3)c2)c1F (single isomer, unassigned) [Example 217-D, (+) or (−)-2-(2-((3′-(1-Amino-2-fluoroethyl)-2′-fluoro-5-(morpholinomethyl)-[1,1′-biphenyl]-3-yl)methoxy)phenyl)acetic acid]
8.79 µM | NCc1cc(F)cc(-c2cccc(C(=O)Nc3ccc(Br)cc3CC(=O)O)c2)c1 [Example 18-B, 2-(2-(3′-(Aminomethyl)-5′-fluoro-[1,1′-biphenyl]-3-ylcarboxamido)-5-bromophenyl)acetic acid]
0.01 µM | C[C@@H](N)c1cccc(-c2cc(CCc3ccn(C)n3)cc(COc3ccccc3CC(=O)O)c2)c1F [Example 218-I, (R)-2-(2-((3′-(1-aminoethyl)-2′-fluoro-5-(2-(1-methyl-1H-pyrazol-3-yl)ethyl)-[1,1′-biphenyl]-3-yl)methoxy)phenyl)acetic acid]
0.024 µM | N[C@H](CO)c1cccc(-c2cc(COc3ccccc3CC(=O)O)cc(C(O)C3CCCCC3)c2)c1 (single isomer, unassigned) [116-I b) (tr = 6.3 min)]
4.45 µM | C[C@@H](N)c1cccc(-c2cccc(COc3ccccc3CC(=O)O)c2F)c1 [Example 125, (R)-2-(2-((3′-(1-Aminoethyl)-2-fluoro-[1,1′-biphenyl]-3-yl)methoxy)phenyl)acetic acid]
0.14 µM | C[C@@H](N)c1cccc(-c2cc(CCC3CCOCC3)cc(COc3ccccc3CC(=O)O)c2)c1F [Example 248, (R)-2-(2-((3′-(1-aminoethyl)-2′-fluoro-5-(2-(tetrahydro-2H-pyran-4-yl)ethyl)-[1,1′-biphenyl]-3-yl)methoxy)phenyl)acetic acid]
18.4 µM | NC(=O)Cc1ccccc1OCc1cccc(-c2cccc([C@H](N)CO)c2)c1 [Example 146-C, (S)-2-(2-((3′-(1-Amino-2-hydroxyethyl)-[1,1′-biphenyl]-3-yl)methoxy)phenyl)acetamide]
0.029 µM | CC(Oc1ccccc1CC(=O)O)c1cccc(-c2cccc(CN)c2F)c1 (racemic) [Example 183, (±)-2-(2-(1-(3′-(Aminomethyl)-2′-fluoro-[1,1′-biphenyl]-3-yl)ethoxy)phenyl)acetic acid]
0.019 µM | C[C@@H](N)c1cccc(-c2cc(NC[C@H]3CCCO3)c3c(c2)C(Oc2ccccc2CC(=O)O)CCC3)c1F (stereo partly shown) [Example 216-Y]
0.396 µM | CCc1ccc(NC(=O)c2cccc(-c3cc(F)cc(CN)c3)c2)c(CC(=O)O)c1 [Example 23-C, 2-(2-(3′-(Aminomethyl)-5′-fluoro-[1,1′-biphenyl]-3-ylcarboxamido)-5-ethylphenyl)acetic acid]
0.021 µM | NCc1cc(F)cc(-c2cc(NC[C@H]3CCCO3)cc(C(=O)Nc3ccccc3CC(=O)O)c2)c1 [Example 14-D]
0.009 µM | COCCc1cc(COc2ccccc2CC(=O)O)cc(-c2cccc([C@@H](C)N)c2F)c1 [Example 120-V]
0.005 µM | C[C@@H](N)c1cccc(-c2cc(COc3ccccc3CC(=O)O)cc(N(C)C[C@@H]3CCCO3)c2)c1F [Example 216-H]
0.009 µM | NCc1cccc(-c2cccc(COc3cc(CC4CC4)ccc3CC(=O)O)c2)c1 [Example 295-C, 2-(2-((3′-(aminomethyl)-[1,1′-biphenyl]-3-yl)methoxy)-4-(cyclopropylmethyl)phenyl)acetic acid]
0.021 µM | NCc1cccc(-c2cc(COc3ccccc3CC(=O)O)ccc2F)c1F [Example 137, 2-(2-((3′-(Aminomethyl)-2′,6-difluoro-[1,1′-biphenyl]-3-yl)methoxy)phenyl)acetic acid]
0.007 µM | N[C@H](CO)c1cccc(-c2cc(Cl)cc(COc3ccccc3CC(=O)O)c2)c1 [Example 108-B, (S)-2-(2-((3′-(1-Amino-2-hydroxyethyl)-5-chloro-[1,1′-biphenyl]-3-yl)methoxy)phenyl)acetic acid]
0.005 µM | NCc1cccc(-c2cccc(COc3ccccc3CC(=O)O)c2)c1F [Example 138-H]
0.07 µM | Cc1cc(CN)cc(-c2cccc(COc3ccccc3CC(=O)O)c2)c1 [Example 292-B, 2-(2-((3′-(aminomethyl)-5′-methyl-[1,1′-biphenyl]-3-yl)methoxy)phenyl)acetic acid]
